This is an account of results in patent US4864023A, “Pyrido(3,2,1-IJ)-1,3,4-benzoxadiazine derivatives” (priority 1988, dated 1989).

In brackets after ≈: the same amount, converted by molar mass. Where two headings read alike, the source gives them in different places.

Assay in all cases: in vitro antibacterial activity, standard agar dilution method
What all share (format): cell-based

The subject of assay [1] is Citrobacter freundii IFO 12681. To be noted: IFO12681, aerobic, read-out: minimum inhibitory concentration (MIC).
Assay [2] deals with Pseudomonas stutzeri IFO 12695. To be noted: Stutzerimonas stutzeri, IFO12695, aerobic, read-out: minimum inhibitory concentration (MIC).
Assay [3] concerns Serratia marcescens IFO 12648. To be noted: IFO12648, aerobic, read-out: minimum inhibitory concentration (MIC).
Assay [4] deals with Proteus vulgaris OX19 ATCC 6898. Particulars: ATCC6898, aerobic, read-out: minimum inhibitory concentration (MIC).
Assay [5] concerns Salmonella typhimurium IFO 12529. Particulars: Salmonella enterica, aerobic, read-out: minimum inhibitory concentration (MIC).
Assay [6] relates to Staphylococcus aureus NR 2855. Particulars: NR2855; Staphylococcus aureus NR 2855; aerobic; agar dilution; read-out: minimum inhibitory concentration (MIC).
The subject of assay [7] is Proteus rettgeri ATCC 14505. To be noted: Providencia rettgeri, ATCC14505, aerobic, read-out: minimum inhibitory concentration (MIC).
Assay [8] deals with Staphylococcus aureus FDA 209P JC-1. Particulars: FDA209P, read-out: minimum inhibitory concentration (MIC).
Assay [9] concerns Klebsiella pneumoniae FDA PCI 602. To be noted: FDAPCI602, aerobic, read-out: minimum inhibitory concentration (MIC).
For assay [10], the system named is Enterobacter aerogenes NR 2945. To be noted: Klebsiella aerogenes, NR2945, aerobic, read-out: minimum inhibitory concentration (MIC).
The subject of assay [11] is Staphylococcus epidermidis IFO 12993. To be noted: IFO12993, aerobic, read-out: minimum inhibitory concentration (MIC).
The subject of assay [12] is Enterococcus faecalis NR 2943. Particulars: NR2943, aerobic, read-out: minimum inhibitory concentration (MIC).
For assay [13], the system named is Staphylococcus epidermidis NR 2942. To be noted: NR2942, aerobic, read-out: minimum inhibitory concentration (MIC).
In assay [14] the test system is Pseudomonas aeruginosa A3. To be noted: aerobic, read-out: minimum inhibitory concentration (MIC).
In assay [15] the test system is Alcaligenes faecalis IFO 13111. Particulars: IFO13111, aerobic, read-out: minimum inhibitory concentration (MIC).
The subject of assay [16] is Bacillus subtilis PCI 219. To be noted: PCI219, aerobic, read-out: minimum inhibitory concentration (MIC).
Assay [17] concerns Bordetella bronchiseptica ATCC 4617. Particulars: ATCC4617, aerobic, read-out: minimum inhibitory concentration (MIC).
Assay [18] has as its system Escherichia coli NR 2630. Particulars: NR2630; Escherichia coli NR 2630; aerobic; agar dilution; read-out: minimum inhibitory concentration (MIC).
Assay [19] concerns Escherichia coli NIHJ JC-2. To be noted: NIHJJC2, aerobic, read-out: minimum inhibitory concentration (MIC).
Assay [20] concerns Enterobacter cloacae NR 2946. Particulars: NR2946, aerobic, read-out: minimum inhibitory concentration (MIC).
Assay [21] relates to Staphylococcus aureus Smith. To be noted: read-out: minimum inhibitory concentration (MIC).
The subject of assay [22] is Pseudomonas aeruginosa NR 2950. To be noted: NR2950, aerobic, read-out: minimum inhibitory concentration (MIC).
The mark [23] stands for this setting: Staphylococcus aureus Smith, aerobic, agar dilution.
The mark [24] stands for this setting: Staphylococcus aureus FDA 209P JC-1, aerobic, agar dilution.

Turning to `CN1COc2c(N3CCC(Cl)C3)c(F)cc3c(=O)c(C(=O)O)cn1c23` (stereo not drawn) [Example 59, 10-(3-chloro-1-pyrrolidinyl)-9-fluoro-3-methyl-7-oxo-2,3-dihydro-7H-pyrido[3,2,1-ij]-1,3,4-benzoxadiazine-6-carboxylic acid], the MIC in assay [1] came to 1.56 µg/mL (≈ 4.24 µM); in assay [2], 1.56 µg/mL (≈ 4.24 µM); in [3] it was 3.13 µg/mL (≈ 8.51 µM); in assay [4], 0.2 µg/mL (≈ 0.544 µM); in assay [5], 1.56 µg/mL (≈ 4.24 µM); in [6], 0.1 µg/mL (≈ 0.272 µM). Also, the MIC was 3.13 µg/mL (≈ 8.51 µM) in [7]; 0.39 µg/mL (≈ 1.06 µM) in [8] (Staphylococcus aureus); 3.13 µg/mL (≈ 8.51 µM) in assay [9]; 0.78 µg/mL (≈ 2.12 µM) in assay [10]; 0.39 µg/mL (≈ 1.06 µM) in assay [11]; 3.13 µg/mL (≈ 8.51 µM) in [12]. Besides, the MIC turned out to be 0.2 µg/mL (≈ 0.544 µM) in assay [13]; 3.13 µg/mL (≈ 8.51 µM) in assay [14]; 6.25 µg/mL (≈ 17 µM) in assay [15]; 0.0065 µg/mL (≈ 0.0177 µM) in assay [16]; 3.13 µg/mL (≈ 8.51 µM) in assay [17]; 0.39 µg/mL (≈ 1.06 µM) in assay [18]. For the same molecule, the MIC was determined as 1.56 µg/mL (≈ 4.24 µM) in assay [19], 0.78 µg/mL (≈ 2.12 µM) in assay [20], 0.05 µg/mL (≈ 0.136 µM) in [21] (setting [23]) and 25 µg/mL (≈ 68 µM) in [22].
For the molecule `CN1COc2c(N3CCC(N)C3)c(F)cc3c(=O)c(C(=O)OCOC(=O)C(C)(C)C)cn1c23` (stereo not drawn) [Example 63, pivaloyloxymethyl 10-(3-amino-1-pyrrolidinyl)-9-fluoro-3-methyl-7-oxo-2,3-dihydro-7H-pyrido[3,2,1-ij]-1,3,4-benzoxadiazine-6-carboxylate], the MIC was determined as 0.78 µg/mL (≈ 1.69 µM) in assay [1]; 0.39 µg/mL (≈ 0.843 µM) in [2]; 3.13 µg/mL (≈ 6.77 µM) in assay [3]; 0.39 µg/mL (≈ 0.843 µM) in [4]; 0.78 µg/mL (≈ 1.69 µM) in assay [5]; 3.13 µg/mL (≈ 6.77 µM) in assay [6]. In addition, the MIC in assay [7] came to 6.25 µg/mL (≈ 13.5 µM); in assay [8] (setting [24]), 0.78 µg/mL (≈ 1.69 µM); in assay [9], 6.25 µg/mL (≈ 13.5 µM); in assay [10], 0.39 µg/mL (≈ 0.843 µM); in [11], 1.56 µg/mL (≈ 3.37 µM); in assay [12], 25 µg/mL (≈ 54.1 µM). The MIC in assay [13] was found to be 0.78 µg/mL (≈ 1.69 µM); in assay [14], 3.13 µg/mL (≈ 6.77 µM); in [15], 100 µg/mL (≈ 216 µM); in assay [16], 0.78 µg/mL (≈ 1.69 µM); in assay [17] it was 50 µg/mL (≈ 108 µM); in assay [18], 0.78 µg/mL (≈ 1.69 µM). In addition, the MIC in [19] was 1.56 µg/mL (≈ 3.37 µM); in assay [20] it was 1.56 µg/mL (≈ 3.37 µM); in assay [21] (Staphylococcus aureus) it was 0.39 µg/mL (≈ 0.843 µM); in assay [22], 25 µg/mL (≈ 54.1 µM).
For the molecule `CN1CCN(c2c(F)cc3c(=O)c(C(=O)O)cn4c3c2OCN4CCF)CC1` [Example 69, 9-fluoro-3-(2-fluoroethyl)-10-(4-methyl-1-piperazinyl)-7-oxo-2,3-dihydro-7H-pyrido[3,2,1-ij]-1,3,4-benzoxadiazine-6-carboxylic acid], the MIC came out at 0.1 µg/mL (≈ 0.254 µM) in [1]; 0.2 µg/mL (≈ 0.507 µM) in assay [2]; 0.2 µg/mL (≈ 0.507 µM) in [3]; 0.05 µg/mL (≈ 0.127 µM) in [4]; 0.1 µg/mL (≈ 0.254 µM) in [5]; 1.56 µg/mL (≈ 3.96 µM) in assay [6]. The MIC in assay [7] was 0.78 µg/mL (≈ 1.98 µM); in [8] (setting [24]), 1.56 µg/mL (≈ 3.96 µM); in [9], 0.39 µg/mL (≈ 0.989 µM); in assay [10], 0.1 µg/mL (≈ 0.254 µM); in [11], 1.56 µg/mL (≈ 3.96 µM); in assay [12] it was 12.5 µg/mL (≈ 31.7 µM). For the same molecule, the MIC in assay [13] worked out at 1.56 µg/mL (≈ 3.96 µM); in assay [14] it was 0.78 µg/mL (≈ 1.98 µM); in assay [15] it was 3.13 µg/mL (≈ 7.94 µM); in assay [16], 0.2 µg/mL (≈ 0.507 µM); in [17] it was 0.78 µg/mL (≈ 1.98 µM); in assay [18], 0.1 µg/mL (≈ 0.254 µM). Moreover, the MIC was determined as 0.2 µg/mL (≈ 0.507 µM) in assay [19], 0.2 µg/mL (≈ 0.507 µM) in assay [20], 0.78 µg/mL (≈ 1.98 µM) in [21] (setting [23]) and 6.25 µg/mL (≈ 15.8 µM) in assay [22].
